Assay results published in ChEMBL document CHEMBL1145867, “Muraymycins, novel peptidoglycan biosynthesis inhibitors: synthesis and SAR of their analogues” (2003).
≈ marks a conversion by molar mass, not a printed value.

Key:
Candida albicans = assay: In vitro antimicrobial activity against Candida albicans […] at 32 ug/ml soluble peptidoglycan; assay type: functional
Enterococcus faecalis [1] = assay: In vitro antimicrobial activity against Enterococcus faecalis GC 4555 at 10.7 ug/ml soluble peptidoglycan; assay type: functional
Enterococcus faecalis [2] = assay: In vitro antimicrobial activity against Enterococcus faecalis GC 842 at 10.7 ug/ml soluble peptidoglycan; assay type: functional
Enterococcus faecalis [3] = assay: In vitro antimicrobial activity 10.7 ug/ml soluble peptidoglycan; assay type: functional
Staphylococcus sp. [4] = assay: In vitro antimicrobial activity against CNS GC 4538 at 10.7 ug/ml soluble peptidoglycan; assay type: functional
Staphylococcus aureus [5] = assay: In vitro antimicrobial activity against Staphylococcus aureus GC 1131 at 10.7 ug/ml soluble peptidoglycan; assay type: functional
Staphylococcus aureus [6] = assay: In vitro antimicrobial activity against Staphylococcus aureus GC 2216 at 10.7 ug/ml soluble peptidoglycan; assay type: functional
Staphylococcus aureus [7] = assay: In vitro antimicrobial activity against Staphylococcus aureus GC 4536 at 10.7 ug/mL soluble peptidoglycan; assay type: functional
Staphylococcus sp. [8] = assay: In vitro antimicrobial activity against CNS GC 4547 at 10.7 ug/ml soluble peptidoglycan; assay type: functional
Staphylococcus sp. [9] = assay: In vitro antimicrobial activity against Coagulase-negative staphylococcus GC 4538 at 10.7 ug/ml soluble peptidoglycan; assay type: functional
Bacteria = assay: In vitro antimicrobial activity against gram-negative organisms (10)

In the case of `COc1ccc(Cn2c(=O)ccn([C@@H]3OC([C@@H](O)[C@H](NCCCNC(=O)[C@H](NC(=O)OCc4ccccc4)C(O)C(C)C)C(=O)OC(C)(C)C)[C@@H](O[Si](C)(C)C(C)(C)C)[C@H]3O[Si](C)(C)C(C)(C)C)c2=O)cc1` (stereo partly specified), the MIC (Candida albicans) is reported as 32 µg/mL (≈ 30.7 µM), the MIC (Enterococcus faecalis [1]) is reported as 64 µg/mL (≈ 61.4 µM) and the MIC (Enterococcus faecalis [2]) is reported as 64 µg/mL (≈ 61.4 µM). For the same compound, the MIC (Enterococcus faecalis [3]) was 64 µg/mL (≈ 61.4 µM), the MIC (Staphylococcus sp. [4]) was 128 µg/mL (≈ 123 µM) and the MIC (Staphylococcus aureus [5]) was 128 µg/mL (≈ 123 µM). The MIC (Staphylococcus aureus [6]) was 128 µg/mL (≈ 123 µM), the MIC (Staphylococcus aureus [7]) was 128 µg/mL (≈ 123 µM) and the MIC (Staphylococcus sp. [8]) was 128 µg/mL (≈ 123 µM). It also gave an MIC (Staphylococcus sp. [9]) of 128 µg/mL (≈ 123 µM) and an MIC (Bacteria) of 64 µg/mL (≈ 61.4 µM).
